# What was measured:
# [1] = Scavenging activity on DPPH radicals; type: biochemical; conditions: standard BHA 1 mg/ml
# Experimental: Scavenging Activity on 1,1-diphenyl-2-picrylhydrazyl. The scavenging activity of extracts from C. comatus was measured on 1,1-diphenyl-2-picrylhydrazyl (DPPH) radicals. An aliquot of 0.5 ml of 0.1 mM DPPH radical (Sigma) in methanol was added to a test tube with 1 mL of mushroom ethanol or water extract of different concentrations (0.5 to 9 mg/mL). Methanol or water was used instead of the mushroom sample as a control. The reaction mixture was vortex-mixed at room temperature and the absorbance was determined immediately after mixing by measuring at 520 nm with a spectrophotometer. Inhibition of free radicals by DPPH was calculated as follows: I (%)=(Ablank−Asample/Ablank)×100, where I is inhibition (%), Ablank is the absorbance of the control reaction (containing all reagents except the test compound), and Asample is the absorbance of the test compound. The extract concentration providing 50% inhibition (EC50) was calculated from the graph of scavenging activity of radical percentage against extract concentration. Butylated hydroxyanisole (BHA) in concentration of 1 mg/ml methanol was used as the standard. Each value is expressed as mean±standard deviation (n=3).
# Free-radical scavenging is one of the known mechanisms by which antioxidants inhibit lipid oxidation. […] The decrease in absorbance is taken as a measure of the extent of radical-scavenging.
# [2] = Antioxidant activity, β-carotene bleaching method; type: biochemical
# Experimental: β-Carotene Bleaching Method. The antioxidant activity of C. comatus extracts was determined according to the β-carotene bleaching method. A reagent mixture containing 1 ml of (3-carotene (Sigma) solution (0.2 mg/ml in chloroform), 0.02 ml of linoleic acid (Sigma), and 0.2 ml of Tween 80 (Sigma) was evaporated to dryness under a nitrogen stream. Fifty milliliters of oxygenated distilled water and 0.2 ml of mushroom crude extracts (either ethanol or culture liquid) with different concentrations (2-8 mg/ml) were added. Pure methanol or water (0.2 ml) was used as the control, and the blank contained all the earlier chemicals except β-carotene. All these mixtures were then shaken to form a liposome solution and then incubated at 50° C. for 2 h. The absorbance of an aliquot (1 ml) of these liposome solutions at 470 nm was monitored by a spectrophotometer at time intervals of 20 min. Butylated hydroxyanisole (BHA) (Sigma) (2 mg/ml in methanol) was used as the standard. […] The bleaching rate (R) of 13-carotene was calculated according to
# where: ln—natural log, a—absorbance at time 0, b—absorbance at time t, and t—incubation interval 20, 40, 60, 80, 100, or 120 min.
# The antioxidant activity (AOA) was calculated, in terms of percent inhibition relative to the control, using Equation (2) […]
compound,measurement,setting,value
"COc1ccc(O)c(C(C)(C)C)c1 [BHA, Butylated hydroxyanisole]",Scavenging ability (% of inhibition),[1],92.0%
same,Antioxidant activity (%) of water extracts,"[2]; extract concentration 2.0 mg/mL, BHA 2 mg/mL in methanol",98.2%
same,Antioxidant activity (%) of ethanol extracts,"[2]; extract concentration 2.0 mg/ml, BHA 2 mg/ml in methanol",98.2%
